The record followed here is patent US9765018B2, “IDO inhibitors” (BRISTOL-MYERS SQUIBB COMPANY, priority 2013, dated 2017).

One test concerns the target Human IDO1 (Homo sapiens (Human), UniProt P14902). As to the kind of experiment: IDO Kynurenine Assay with Human IDO1/HEK293 Cells. Format: cell-based. As to conditions: HEK293 cells with human IDO1; read-out: HEK human IDO-1 (IC50). The method, then:
IDO Kynurenine Assay with Human IDO1/HEK293 Cells
Human IDO1/HEK293 cells were seeded at 10,000 cells per 50 uL per well with RPMI/phenol red free media contains 10% FBS in a 384-well black wall clear bottom tissue culture plate (Matrix Technologies LLC) 125 nL of certain concentration of compound was then added to each well using ECHO liquid handling systems. The cells were incubated for 20 hours in 37° C. incubator with 5% CO2.
The compound treatments were stopped by adding Trichloroacetic Acid (Sigma-Aldrich) to a final concentration at 0.2%. The cell plate was further incubated at 50° C. for 30 minute. The equal volume supernatant (20 uL) and 0.2% (w/v) Ehrlich reagent (4-dimethylaminobenzaldehyde, Sigma-Aldrich) in glacial acetic acid were mixed in a new clear bottom 384-well plate. This plate was then incubated at room temperature for 30 minute. The absorbance at 490 nm was measured on Envision plate reader.

The target of test [1] is T1, IDO (Homo sapiens (Human), UniProt P14902). Put plainly: Kynurenine assay in IFN-γ-stimulated Hela cells. Format: cell-based. As to conditions: 20 h, read-out: Hela Kyurenine (IC50). Summed up:
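Kynurenine in supernatant is read at 490 nm after Ehrlich reagent (10 min RT), following TCA stop and 30 min at 50° C hydrolysis. Before that, Hela cells in phenol red-free RPMI/10% FBS were co-treated 20 h at 37° C with 100 ng/mL IFN-γ and compound (30 μM top, 3-fold series to 1.5 nM).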

Test [2] concerns the target T1, IDO. Put plainly: LLE_IDO_ABS_DR (IDO assay, method not described).

T1 sequence (P14902 whole entry): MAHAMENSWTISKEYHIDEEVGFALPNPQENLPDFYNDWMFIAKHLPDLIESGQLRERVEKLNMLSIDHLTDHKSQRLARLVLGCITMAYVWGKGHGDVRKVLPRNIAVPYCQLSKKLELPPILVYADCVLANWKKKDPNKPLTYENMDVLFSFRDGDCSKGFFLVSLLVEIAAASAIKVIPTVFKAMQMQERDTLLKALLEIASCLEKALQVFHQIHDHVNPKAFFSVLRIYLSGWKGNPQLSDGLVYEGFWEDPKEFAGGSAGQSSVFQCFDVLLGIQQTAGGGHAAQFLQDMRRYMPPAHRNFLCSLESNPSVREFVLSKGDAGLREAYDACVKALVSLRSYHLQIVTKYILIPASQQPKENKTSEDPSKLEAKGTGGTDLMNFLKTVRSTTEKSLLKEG
Chain of Human IDO1 (P14902 whole entry): as above

For the compound `Cc1ccc(NC(=O)Nc2cc(-c3ccc(Cl)c(C(=O)O)c3)ccc2Oc2ccccc2C(C)(C)C)cc1` [Example 1, 4′-(2-tert-Butylphenoxy)-4-chloro-3′-(3-p-tolylureido)biphenyl-3-carboxylic acid], the IC50 – broadly, the concentration needed to halve the response being measured – on Human IDO1 turned out to be 6180 nM; at IDO [1], 2420 nM.

Consider `COc1ccccc1Oc1ccc(-c2ccc(OC)c(C(=O)O)c2)cc1NC(=O)Nc1ccc(C)cc1` [Example 69, 4-methoxy-4′-(2-methoxyphenoxy)-3′-(3-p-tolylureido)biphenyl-3-carboxylic acid], for which the IC50 at Human IDO1 turned out to be 6190 nM; at IDO [1], 2090 nM.

As for `COc1ccc(-c2ccc(Oc3cccc4c3OC(C)(C)C4)c(NC(=O)Nc3ccc(C)cc3)c2)cc1C(=O)O` [Example 135, 4′-(2,2-dimethyl-2,3-dihydrobenzofuran-7-yloxy)-4-methoxy-3′-(3-p-tolylureido)biphenyl-3-carboxylic acid], the figures for the IC50 at Human IDO1 and at IDO [1] were 5170 nM and 2240 nM, respectively.

Take `Cc1ccc(NC(=O)Nc2cc(-c3cccc(Cl)c3C(=O)O)ccc2Oc2ccccc2C(C)(C)C)cc1` [Example 174, 4′-(2-tert-butylphenoxy)-3-chloro-3′-(3-p-tolylureido)biphenyl-2-carboxylic acid]: the IC50 against IDO [2] was 320 nM; on IDO [1] it was 280 nM.

`Cc1ccccc1NC(=O)Nc1cc(-c2cccc(F)c2C(=O)O)ccc1Oc1ccccc1C(C)(C)C` [Example 175, 4′-(2-tert-butylphenoxy)-3-fluoro-3′-(3-o-tolylureido)biphenyl-2-carboxylic acid]: the IC50 was determined as 2580 nM at IDO [2] and 1480 nM on IDO [1].

Take `Cc1ccc(NC(=O)Nc2cc(-c3ccc(C(F)(F)F)cc3C(=O)O)ccc2Oc2ccccc2C(C)(C)C)cc1` [Example 177, 4′-(2-tert-butylphenoxy)-3′-(3-p-tolylureido)-4-(trifluoromethyl)biphenyl-2-carboxylic acid]: the IC50 amounted to 420 nM against IDO [2] and 200 nM at IDO [1].

For the compound `Cc1ccc(NC(=O)Nc2cc(-c3ccc(C(=O)O)nc3)ccc2Oc2ccccc2C(C)(C)C)cc1` [Example 178, 5-(4-(2-tert-butylphenoxy)-3-(3-p-tolylureido)phenyl)picolinic acid], the IC50 amounted to 1740 nM on IDO [2] and 890 nM at IDO [1].

Regarding `CC(C)(C)c1ccccc1Oc1ccc(-c2ccccc2-c2nnn[nH]2)cc1NC(=O)Nc1ccccc1` [Example 180, 1-(4-(2-tert-butylphenoxy)-2′-(1H-tetrazol-5-yl)biphenyl-3-yl)-3-phenylurea], the IC50 at IDO [2] was found to be 270 nM; at IDO [1], 150 nM.

Take `Cc1ccccc1NC(=O)Nc1cc(-c2ccccc2-c2nnn[nH]2)ccc1Oc1ccccc1C(C)(C)C` [Example 181, 1-(4-(2-tert-butylphenoxy)-2′-(1H-tetrazol-5-yl)biphenyl-3-yl)-3-o-tolylurea]: the IC50 against IDO [2] came out at 740 nM; on IDO [1], 90 nM.

Consider `Cc1ccc(NC(=O)Nc2cc(-c3ccccc3-c3nnn[nH]3)ccc2Oc2cccc3c2CCCC3)cc1` [Example 185, 1-(4-(5,6,7,8-tetrahydronaphthalen-1-yloxy)-2′-(1H-tetrazol-5-yl)biphenyl-3-yl)-3-p-tolylurea], for which the IC50 against IDO [2] was determined as 680 nM; at IDO [1], 160 nM.

Consider `Cc1ccccc1NC(=O)Nc1cc(-c2ccccc2-c2nnn[nH]2)ccc1Oc1cccc2c1CCCC2` [Example 187, 1-(4-(5,6,7,8-tetrahydronaphthalen-1-yloxy)-2′-(1H-tetrazol-5-yl)biphenyl-3-yl)-3-o-tolylurea], for which the figures for the IC50 against IDO [2] and on IDO [1] were 2330 nM and 860 nM, respectively.

Consider `O=C(Nc1ccccc1F)Nc1cc(-c2ccccc2-c2nnn[nH]2)ccc1Oc1cccc2c1CCCC2` [Example 188, 1-(2-fluorophenyl)-3-(4-(5,6,7,8-tetrahydronaphthalen-1-yloxy)-2′-(1H-tetrazol-5-yl)biphenyl-3-yl)urea], for which the 50% inhibitory concentration (IC50) against IDO [2] came to 1830 nM; on IDO [1], 870 nM.

For the compound `O=C(Nc1ccc(Cl)cc1)Nc1cc(-c2ccccc2-c2nnn[nH]2)ccc1Oc1cccc2c1CCCC2` [Example 189, 1-(4-chlorophenyl)-3-(4-(5,6,7,8-tetrahydronaphthalen-1-yloxy)-2′-(1H-tetrazol-5-yl)biphenyl-3-yl)urea], the IC50 against IDO [2] was determined as 1240 nM; on IDO [1] it was 360 nM.

Consider `CC(C)(C)c1ccccc1Oc1ccc(-c2ccccc2-c2nnn[nH]2)cc1NC(=O)Nc1ccccc1F` [Example 190, 1-(4-(2-tert-butylphenoxy)-2′-(1H-tetrazol-5-yl)biphenyl-3-yl)-3-(2-fluorophenyl)urea], for which the IC50 against IDO [2] was 450 nM; at IDO [1] it was 170 nM.

Take `CCCCNC(=O)Nc1cc(-c2ccccc2-c2nnn[nH]2)ccc1Oc1ccccc1C(C)(C)C` [Example 191, 1-butyl-3-(4-(2-tert-butylphenoxy)-2′-(1H-tetrazol-5-yl)biphenyl-3-yl)urea]: the IC50 was determined as 1210 nM at IDO [2] and 340 nM on IDO [1].

Turning to `COc1ccc(-c2ccc(Oc3ccccc3C(C)(C)C)c(NC(=O)Nc3ccccc3Cl)c2)c(-c2nnn[nH]2)c1` [Example 192, 1-(4-(2-tert-butylphenoxy)-4′-methoxy-2′-(1H-tetrazol-5-yl)biphenyl-3-yl)-3-(2-chlorophenyl)urea], the IC50 at IDO [2] was 1440 nM; at IDO [1], 370 nM.

Regarding `COc1ccc(-c2ccc(Oc3ccccc3C(C)(C)C)c(NC(=O)Nc3ccccc3C)c2)c(-c2nnn[nH]2)c1` [Example 193, 1-(4-(2-tert-butylphenoxy)-4′-methoxy-2′-(1H-tetrazol-5-yl)biphenyl-3-yl)-3-o-tolylurea], the IC50 against IDO [2] worked out at 1160 nM; at IDO [1], 250 nM.

On to `Cc1cccc(NC(=O)Nc2cc(-c3ccc(C(=O)O)cc3)ccc2Oc2ccccc2C(C)(C)C)c1` [Example 201, 4′-(2-tert-butylphenoxy)-3′-(3-m-tolylureido) biphenyl-4-carboxylic acid], for which the IC50 against IDO [2] was determined as 8150 nM; on IDO [1], 780 nM.

Take `O=C(Nc1ccc(Cl)cc1)Nc1cc(-c2ccc(C(=O)O)c(Cl)c2)ccc1Oc1ccccc1C(F)(F)F` [Example 206, 3-chloro-3′-(3-(4-chlorophenyl)ureido)-4′-(2-(trifluoromethyl)phenoxy)biphenyl-4-carboxylic acid]: the IC50 against IDO [2] is 3350 nM; at IDO [1], 850 nM.

On to `Cc1cccc(NC(=O)Nc2cc(-c3ccc(C(=O)O)c(Cl)c3)ccc2Oc2ccccc2C(C)(C)C)c1` [Example 213, 4′-(2-tert-butylphenoxy)-3-chloro-3′-(3-m-tolylureido) biphenyl-4-carboxylic acid], for which the IC50 was 2560 nM against IDO [2] and 930 nM on IDO [1].

Turning to `CC(C)(C)c1ccccc1Oc1ccc(-c2ccc(C(=O)O)c(Cl)c2)cc1NC(=O)Nc1ccccc1Cl` [Example 215, 4′-(2-tert-butylphenoxy)-3-chloro-3′-(3-(2-chlorophenyl)ureido)biphenyl-4-carboxylic acid], the values for the concentration for half-maximal inhibition (IC50) on IDO [2] and on IDO [1] were 1830 nM and 300 nM, respectively.

Regarding `CC(C)(C)c1ccccc1Oc1ccc(-c2cccc(C(=O)O)c2)cc1NC(=O)Nc1ccc(OC(F)F)cc1` [Example 223, 4′-(2-tert-butylphenoxy)-3′-(3-(4-(difluoromethoxy)phenyl)ureido) biphenyl-3-carboxylic acid], the values for the IC50 at Human IDO1 and at IDO [1] were 7500 nM and 2640 nM, respectively.

As to `COc1ccccc1NC(=O)Nc1cc(-c2cccc(C(=O)O)c2)ccc1Oc1ccccc1C(C)(C)C` [Example 227, 4′-(2-tert-butylphenoxy)-3′-(3-(2-methoxyphenyl)ureido)biphenyl-3-carboxylic acid], the figures for the IC50 against IDO [2] and at IDO [1] were 10000 nM and 930 nM, respectively.

For `Cc1ccccc1NC(=O)Nc1cc(-c2cc(Cl)cc(C(=O)O)c2)ccc1Oc1ccccc1C(C)(C)C` [Example 238, 4′-(2-tert-butylphenoxy)-5-chloro-3′-(3-o-tolylureido) biphenyl-3-carboxylic acid], the results for the IC50 on IDO [2] and at IDO [1] were 10000 nM and 440 nM, respectively.

Regarding `Cc1ccc(NC(=O)Nc2cc(-c3cc(Cl)cc(C(=O)O)c3)ccc2Oc2ccccc2C(C)(C)C)cc1` [Example 246, 4′-(2-tert-butylphenoxy)-5-chloro-3′-(3-p-tolylureido) biphenyl-3-carboxylic acid], the concentration for half-maximal inhibition (IC50) on IDO [2] stood at 3940 nM; at IDO [1], 700 nM.

`Cc1ccc(NC(=O)Nc2cc(-c3ccc(C(=O)O)c(Cl)c3)ccc2Oc2ccccc2C(C)(C)C)cc1` [Example 257, 4′-(2-tert-butylphenoxy)-3-chloro-3′-(3-p-tolylureido) biphenyl-4-carboxylic acid]: the IC50 against IDO [2] turned out to be 1250 nM; at IDO [1] it was 440 nM.

In the case of `O=C(Nc1ccc(Cl)cc1)Nc1cc(-c2ccccc2-c2nnn[nH]2)cc(CC2CC2)c1OC1CCOCC1` [Example 331], the IC50 was 810 nM against IDO [2] and 520 nM at IDO [1].

`COc1ccc(-c2cnc(Oc3ccccc3C(C)(C)C)c(NC(=O)Nc3cccc(C)c3)c2)cc1C(=O)O` [Example 334]: the figures for the IC50 at IDO [2] and on IDO [1] were 16700 nM and 380 nM, respectively.

Consider `COc1ccc(-c2cnc(Oc3ccccc3C(C)(C)C)c(NC(=O)Nc3ccccc3Cl)c2)cc1C(=O)O` [Example 336], for which the IC50 was found to be 1110 nM at IDO [2] and 760 nM on IDO [1].
